Measurements from PMC9144521 (Viruses, 2022).
Structures can show the parent of a compound that is named as a salt.

What was measured:
AdV5 = experiment: Anti-AdV activity assay (IFA of hexon), secondary screen, AdV5; type: cell-based, Human adenoviruses type 5; conditions: for EC50: Vero cells, 48 h, IFA of hexon, 0.02 to 5 μM; for Selective Index AdV5: CC50/EC50, Vero cells
AdV3 = experiment: Anti-AdV activity assay (IFA of hexon), secondary screen, AdV3; type: cell-based, Human adenoviruses type 3; conditions: for Selective Index AdV3: CC50/EC50, Vero cells; for EC50: Vero cells, 48 h, IFA of hexon, 0.02 to 5 μM
in vitro = conditions: African green monkey

SMILES	CC50 (Vero cells) [nM]	EC50 (AdV5) [nM]	Selective Index AdV3 (AdV3)	EC50 (AdV3) [nM]	Selective Index AdV5 (AdV5)	CC50 at 48 h (in vitro) [nM]	CC50 at 48 h (in vitro; Vero cells) [nM]
C#Cc1cccc(Nc2ncnc3cc(OCCOC)c(OCCO)cc23)c1.Cl [DesMethyl Erlotinib]	> 5000	> 5000	>9.72	510			
Cc1c(CN2CCN(C(=O)[C@H](C)O)CC2)sc2c(N3CCOCC3)nc(-c3cnc(N)nc3)nc12 [GDC-0980]		270	36.44	80	10.96	3000	
COC1(c2sc3c(N4CCOCC4)nc(-c4cnc(N)nc4)nc3c2C)COC1 [GNE-317]	> 5000	590		260			
COC1=C2C[C@@H](C)C[C@H](OC)[C@H](O)[C@@H](C)/C=C(\C)[C@H](OC(N)=O)[C@@H](OC)/C=C\C=C(/C)C(=O)NC(=CC1=O)C2=O [Geldanamycin]		> 5000	>3.38	1480		> 5000	
Cn1c2ccccc2c2c3c(c4c5ccccc5n(CCC#N)c4c21)CNC3=O [Go6976]		1230	6.39	620	3.22		3950
Cl.Cl.O=S(=O)(NCCNC/C=C/c1ccc(Br)cc1)c1cccc2cnccc12 [H 89 2HCl]	> 5000	> 5000	>15.97	310			
COc1cccc(-c2cc(F)ccc2[C@H]2Cc3nc(N)nc(C)c3C(=O)N2)n1 [HSP990]	4310	30	205.19	20	148.47		
CC(C)n1nc(-c2ccc3oc(N)nc3c2)c2c(N)ncnc21 [INK 128]		10	161.78	10	61.27		850
O=C(/C=C\n1cnc(-c2cc(C(F)(F)F)cc(C(F)(F)F)c2)n1)N1CC(F)(F)C1 [KPT-276]	> 5000	970	>50.46	100	>5.13		
O=C(/C=C\n1cnc(-c2cc(C(F)(F)F)cc(C(F)(F)F)c2)n1)NNc1cnccn1 [KPT-330]		520	15.45	100	3.04	1580	
O=C(c1ccc(/C=C/c2n[nH]c3ccccc23)cc1)N1CCNCC1 [KW-2449]		1280	>1.37	3660	>3.91	> 5000	
CO[C@@H](C)Cn1c(=O)n(C)c2cnc3ccc(-c4cncc(C(C)(C)O)c4)cc3c21 [LY3023414]		1310	>5.58	900	>3.83	> 5000	
COc1c(C)c2c(c(O)c1C/C=C(\C)CCC(=O)OCCN1CCOCC1)C(=O)OC2 [Mycophenolate Mofetil]		190	>2.72	1840	>25.83		> 5000
CN1CCN(c2ccc(Nc3ncc4cc(C#N)c(=O)n(C5CCCC5)c4n3)cc2)CC1 [ON123300]		1620	>1.72	2910	>3.08		> 5000
COc1cccc2cc(-c3nc([C@H]4CC[C@H](C(=O)O)CC4)n4ncnc(N)c34)[nH]c12 [OSI-027]		2400	>3.62	1380	>2.08	> 5000	
Cc1nc(Nc2[nH]nc3c2CN(C(=O)N[C@H](CN(C)C)c2ccccc2)C3(C)C)c2sccc2n1 [PF-3758309]		2260	>9.29	540	>2.22		> 5000
COc1ccc(-c2cc3c(C)nc(N)nc3n([C@H]3CC[C@H](OCCO)CC3)c2=O)cn1 [PF-04691502]	> 5000	120	>86.01	60	>41.46		
CC1(C)CC(=O)c2c(C(F)(F)F)nn(-c3ccc(C(N)=O)c(N[C@H]4CC[C@H](OC(=O)CN)CC4)c3)c2C1 [PF-04929113]		400	>26.61	190	>12.46	> 5000	
CNC(=O)c1ccc(C)c(-n2c(C)cc(OCc3ccc(F)cc3F)c(Br)c2=O)c1 [PH-797804]		1580	>250.00	20	>3.16	> 5000	
CC(C)NCCCn1c(Sc2cc3c(cc2I)OCO3)nc2c(N)ncnc21 [PU-H71]		2200	>6.79	740	>2.27		> 5000
COc1cc(Nc2ncc(F)c(Nc3ccc4c(n3)NC(=O)C(C)(C)O4)n2)cc(OC)c1OC [R406]	> 5000	> 5000	>5.32	940			
COc1cc(Nc2ncc(F)c(Nc3ccc4c(n3)N(COP(=O)(O)O)C(=O)C(C)(C)O4)n2)cc(OC)c1OC [R788]		1060	6.65	230	1.48		1560
Cn1c(Nc2ccc(C(F)(F)F)cc2)nc2cc(Oc3ccnc(-c4ncc(C(F)(F)F)[nH]4)c3)ccc21 [RAF265]		> 5000	>3.91	1280		> 5000	
CNC(=O)c1cc(Oc2ccc(NC(=O)Nc3ccc(Cl)c(C(F)(F)F)c3)c(F)c2)ccn1 [Regorafenib]		1500	9.30	440	2.72		4060
CC1(C)CC(=O)c2c(C(F)(F)F)nn(-c3ccc(C(N)=O)c(N[C@H]4CC[C@H](O)CC4)c3)c2C1 [SNX-2112]		330	>28.87	170	>15.09		> 5000
CC(C)c1cc(-c2n[nH]c(=O)n2-c2ccc3c(ccn3C)c2)c(O)cc1O [STA-9090]		50	97.56	50	76.73		4440
O=C1c2ccc(Nc3ccc(F)cc3F)cc2CCc2ccc(OC[C@H](O)CO)cc21 [Skepinone-L]		2560	11.84	180	0.83	2140	
CNC(=O)c1cc(Oc2ccc(NC(=O)Nc3ccc(Cl)c(C(F)(F)F)c3)cc2)ccn1 [Sorafenib Tosylate]		3870	4.67	1270	1.53	> 5000	
COc1cccc(-c2ccc(NC(=O)C3=C(C(=O)O)CCC3)c(F)c2)c1 [Vidofludimus]		940	>3.07	1630	>5.35		> 5000
CCn1c(=O)c(-c2cc[nH]n2)cc2c(C)nc(N)nc21 [Voxtalisib]		2720	4.83	470	0.83	2260	
